Measurements: the CheMixHub viscosity set

Assay: xn = mol fraction of the nth substance listed

CCCCOCCOCCO + O
viscosity [mPa·s], 101 kPa
Settings | 293.15 K | 303.15 K | 313.15 K | 323.15 K
x1 = 0.01221 | 1.52 | 1.15 | 0.908 | 0.738
x1 = 0.02709 | 2.26 | 1.64 | 1.27 | 1.02
x1 = 0.04539 | 3.18 | 2.31 | 1.76 | 1.38
x1 = 0.0689 | 4.35 | 3.1 | 2.32 | 1.79
x1 = 0.09981 | 5.57 | 3.93 | 2.88 | 2.19
x1 = 0.1428 | 6.78 | 4.74 | 3.44 | –
x1 = 0.2062 | 7.94 | – | 3.88 | 2.87
x1 = 0.3078 | 8.42 | 5.78 | – | 3.07
x1 = 0.4 | – | – | – | 3.195
x1 = 0.4037 | 8.24 | 5.75 | – | 3.08
x1 = 0.5015 | 7.84 | 5.55 | 4.04 | 3.02
x1 = 0.6107 | 7.35 | 5.27 | 3.86 | 2.91
x1 = 0.705 | 6.94 | 5 | 3.7 | 2.81
x1 = 0.7958 | 6.56 | 4.76 | 3.54 | 2.71
x1 = 0.8932 | 6.2 | 4.49 | 3.38 | 2.61

CCCCCCCCCCCCCCCCCC(=O)O + CC(C)[C@@H]1CC[C@@H](C)C[C@H]1O
100 kPa, x1 = 0.1
Settings | viscosity [mPa·s]
313.15 K | 16.61
318.15 K | 12.62
323.15 K | 9.81

Nc1ccccc1Cl + CC(C)(C)O
viscosity [mPa·s], 101 kPa
Settings | x1 = 0.0902 | x1 = 0.1802 | x1 = 0.3025 | x1 = 0.4125 | x1 = 0.5089 | x1 = 0.6158 | x1 = 0.7025 | x1 = 0.8054 | x1 = 0.9005
303.15 K | 3.13 | 3.28 | 3.44 | 3.57 | 3.66 | 3.73 | 3.78 | 3.82 | 3.84
308.15 K | 2.89 | 3.03 | 3.16 | 3.26 | 3.33 | 3.39 | 3.43 | 3.46 | 3.46
313.15 K | 2.36 | 2.52 | 2.68 | 2.79 | 2.88 | 2.98 | 3.03 | 3.09 | 3.11
318.15 K | 1.97 | 2.13 | 2.3 | 2.42 | 2.52 | 2.62 | 2.7 | 2.77 | 2.8

Cc1cccc(C)c1 + COCCO
viscosity [mPa·s], 101 kPa
Settings | 298.15 K | 308.15 K
x2 = 0.0519 | 0.598 | 0.513
x2 = 0.1498 | 0.635 | 0.543
x2 = 0.2504 | 0.681 | 0.58
x2 = 0.3476 | 0.737 | 0.624
x2 = 0.452 | 0.81 | 0.68
x2 = 0.4991 | 0.848 | 0.709
x2 = 0.5538 | 0.897 | 0.746
x2 = 0.6476 | 0.996 | 0.819
x2 = 0.7504 | 1.127 | 0.915
x2 = 0.8491 | 1.282 | 1.026
x2 = 0.9558 | 1.491 | 1.172

CCCCOCCOCCO + ClCCl
298.15 K, 101.33 kPa
Settings | viscosity [mPa·s]
x1 = 0.0047 | 0.418
x1 = 0.012 | 0.433
x1 = 0.02 | 0.448
x1 = 0.0388 | 0.48
x1 = 0.0685 | 0.56
x1 = 0.1079 | 0.649
x1 = 0.1533 | 0.78
x1 = 0.1882 | 0.907
x1 = 0.2206 | 1.028
x1 = 0.2751 | 1.226
x1 = 0.3166 | 1.409
x1 = 0.3515 | 1.576
x1 = 0.397 | 1.807
x1 = 0.4383 | 2.028
x1 = 0.4759 | 2.224
x1 = 0.5118 | 2.425
x1 = 0.5496 | 2.627
x1 = 0.6026 | 2.965
x1 = 0.6535 | 3.267
x1 = 0.7124 | 3.628
x1 = 0.7606 | 3.893
x1 = 0.8051 | 4.163
x1 = 0.854 | 4.458
x1 = 0.9019 | 4.724
x1 = 0.9342 | 4.893
x1 = 0.9731 | 5.104

O=S1(=O)CCCC1 + CO
viscosity [mPa·s], 101 kPa
Settings | 298.15 K | 303.15 K | 308.15 K | 313.15 K | 323.15 K
x1 = 0.0496 | 0.607 | 0.569 | – | 0.498 | 0.437
x1 = 0.068 | – | 0.5856 | 0.5474 | 0.5133 | –
x1 = 0.0966 | 0.694 | 0.648 | – | 0.565 | 0.495
x1 = 0.1103 | – | 0.6512 | 0.6081 | 0.5686 | –
x1 = 0.1632 | 0.814 | 0.757 | – | 0.661 | 0.579
x1 = 0.1658 | – | 0.756 | 0.7042 | 0.6574 | –
x1 = 0.2274 | – | 0.8999 | 0.8344 | 0.7787 | –
x1 = 0.2282 | 0.985 | 0.916 | – | 0.792 | 0.686
x1 = 0.306 | 1.227 | 1.137 | – | 0.986 | 0.867
x1 = 0.3087 | – | 1.13 | 1.047 | 0.9753 | –
x1 = 0.3969 | 1.587 | 1.458 | – | 1.238 | 1.062
x1 = 0.4056 | – | 1.495 | 1.378 | 1.279 | –
x1 = 0.5037 | 2.208 | 2.022 | – | 1.687 | 1.467
x1 = 0.5284 | – | 2.142 | 1.96 | 1.803 | –
x1 = 0.6337 | 3.233 | 2.982 | – | 2.466 | 2.125
x1 = 0.6422 | – | 3.025 | 2.753 | 2.515 | –
x1 = 0.7703 | – | 4.551 | 4.1 | 3.722 | –
x1 = 0.7949 | 5.516 | 5.126 | – | 4.165 | 3.476

O=S1(=O)CCCC1 + Cc1cccc(C)c1
viscosity [mPa·s], 101.3 kPa
Settings | x2 = 0.1117 | x2 = 0.2206 | x2 = 0.3267 | x2 = 0.4301 | x2 = 0.531 | x2 = 0.6294 | x2 = 0.7254 | x2 = 0.8191 | x2 = 0.9106
303.15 K | 6.231 | 4.214 | 2.961 | 2.171 | 1.65 | 1.275 | 1.007 | 0.7887 | 0.6551
323.15 K | 4.014 | 2.798 | 2.042 | 1.543 | 1.204 | 0.9507 | 0.7638 | 0.6203 | 0.5221

Cc1cccc(C)c1 + CCCCCCCCCC
viscosity [mPa·s], 101 kPa
Settings | x1 = 0.0494 | x1 = 0.1119 | x1 = 0.2059 | x1 = 0.2732 | x1 = 0.4032 | x1 = 0.4856 | x1 = 0.6058 | x1 = 0.7313 | x1 = 0.8131 | x1 = 0.9342
308.15 K | 0.7221 | 0.6889 | 0.6779 | 0.6545 | 0.6148 | 0.5958 | 0.5728 | 0.5498 | 0.5392 | 0.5253
313.15 K | 0.6818 | 0.6525 | 0.6364 | 0.6134 | 0.5805 | 0.5631 | 0.542 | 0.5191 | 0.5122 | 0.4972
